In assay [1] the test system is Amaranthus retroflexus (pigweed). Nature of the assay: Enhancement of herbicide activity: pre-emergence Amaranthus kill with metribuzin (Method 4). Format: in vivo. The settings on record: enhancer at 100 g/ha. The text has this: Small amounts of acetone were used to aid solubility. The pots were watered immediately after sowing and treatment and then allowed to stand in a glasshouse. Assessment of kill was made seven and fourteen days after treatment. The test included four replicates for each treatment and the control.

In the next assay the test system is apyrase. Kind of assay: Apyrase inhibition assay (Method 1). Format: biochemical. The settings on record: inhibitor conc at 1 mM stock, 10 μl per well; 1 hr room temperature; rounded average of at least two assay results. Here is the method:
Apyrase inhibitors useful as enhancers of pesticidal activity are assessed using an in vitro assay. The method of Windsor, Bio Techniques 33:1024-1030 (November 2002) was used as follows
96 well plates were used for the assay: (Greiner bio-one: REF-655901-96 well, PS, F-bottom, Clear, Non-binding)
• Reaction Buffer: 60 mM Hepes, 3 mM MgCl2, 3 mM CaCl2 and 3 mM ATP (pH 6.5) • Development Buffer A: 2% aqueous ammonium molybdate • Development Buffer B: 11% ascorbic acid in 37.5% TCA in water • Stop buffer C: 2% trisodium citrate in 2% acetic acid solution in water • Add 100 μl of reaction buffer to each well. • Add 10 μl of DMSO (control) or inhibitor/compound or compounds such as N1915 or orthovanadate to each well. (use inhibitor conc at 1 mM; orthovanadate at 2 mM and N1915 at 1 mM) • Add 10 μl of apyrase (concentration based on optimization —Dilute 1 U/μl enzyme to different concentrations such as 0.1U, 0.05U, 0.0025, 0.001U, 0.0005U—to find a good range) • Incubate plate at room temperature for 1 hr • Mix development buffer A and B in the ratio of 1:1.5 (just before use). • Add 50 ul of A:B mix in each well (incubate for 2 mins) • Add 50 ul of C in each well • Measure/Read Absorbance of plate @630 nm
Inhibitory data for the apyrase assay described above are provided for selected compounds in Table 3. In Table 3, D indicates inhibition of <10%.
With reference to Table 3, percent inhibition of apyrase is reported as the rounded average of at least two assay results.

Where [2] appears, read: Assessed 7 DAT, metribuzin rate 50 g/ha.

This note sets out measurements from patent US20250275537A1, “CARBOXAMIDE APYRASE INHIBITORS” (Texas Crop Science, Inc., priority 2024, published 2025).

Take `CSc1nnc(C(C)(C)C)c(=O)n1N` [metribuzin, reference compound]: the “Pre-Emergence Amaranthus Kill Percentage” value in assay [1] (setting [2]) was 0.0%. In the case of `COCc1cc(F)ccc1NC(=O)c1cccc(C(=O)Nc2ccc(F)cc2COC)c1` [Compound I-63, N^1,N^3-bis(4-fluoro-2-(methoxymethyl)phenyl)isophthalamide], the “% Inhibition of Apyrase” value in the assay on apyrase is “A (A indicates inhibition above 30%)”. Moreover, the “Pre-Emergence Amaranthus Kill Percentage” value in assay [1] (setting [2]) is 2.0%; in assay [1] (Assessed 7 DAT, metribuzin rate 100 g/ha), 34.0%; in assay [1] (Assessed 7 DAT, metribuzin rate 200 g/ha), 96.3%; in assay [1] (Assessed 14 DAT, metribuzin rate 50 g/ha) it was 4.1%; in assay [1] (Assessed 14 DAT, metribuzin rate 100 g/ha) it was 34.0%; in assay [1] (Assessed 14 DAT, metribuzin rate 200 g/ha), 98.2%. Also, in assay [1] (at seven and fourteen days), the “enhancement of metribuzin herbicidal activity” value is recorded as “significant enhancement”. On to `Cc1cccc(CNC(=O)c2ccc(C(=O)Nc3cccc(-n4ccnn4)c3)cc2)c1` [Compound I-9, N^1-(3-(1H-1,2,3-triazol-1-yl)phenyl)-N^4-(3-methylbenzyl)terephthalamide], for which the “% Inhibition of Apyrase” value in the assay with apyrase is “A (A indicates inhibition above 30%)”. Turning to `Cc1cnc(NC(=O)c2ccc(C(=O)Nc3ccccc3)cc2)[nH]1` [Compound I-38, N^1-(5-methyl-1H-imidazol-2-yl)-N^4-phenylterephthalamide], in the assay on apyrase, the “% Inhibition of Apyrase” value is recorded as “D (D indicates inhibition of <10%)”.

Take `CCCNC(=O)c1cccc(C(=O)Nc2ccc3c[nH]nc3c2)c1` [Compound I-52, N^1-(2H-indazol-6-yl)-N^3-propylisophthalamide]: the “% Inhibition of Apyrase” value in the assay on apyrase was “D (D indicates inhibition of <10%)”. Regarding `CCn1cc2ccc(NC(=O)c3cccc(C(=O)NC)c3)cc2n1` [Compound I-22, N^1-(2-ethy1-2H-indazol-6-yl)-N^3-methylisophthalamide], the “% Inhibition of Apyrase” value with apyrase is “C (C indicates inhibition of from 10% to 20%)”. Same read-out and setting: with `CC(C)Cn1c(=O)c2ccccc2c(=O)n1C` [Compound I-15, 2-isobutyl-3-methyl-2,3-dihydrophthalazine-1,4-dione] the entry was “B (B indicates inhibition of from 20% to 30%)”; with `CN(C(=O)c1cccc(C(=O)Nc2cc(Br)ccc2F)c1)c1ccccc1` [Compound I-65, N^1-(5-bromo-2-fluorophenyl)-N3-methyl-N^3-phenylisophthalamide], “D (D indicates inhibition of <10%)”; with `Cn1c(=O)c2ccccc2c(=O)n1Cc1nnc(C2CC2)o1` [Compound I-59, 2-((5-cyclopropyl-1,3,4-oxadiazol-2-yl)methyl)-3-methyl-2,3-dihydrophthalazine-1,4-dione], “D (D indicates inhibition of <10%)”. Turning to `CSc1cccc(NC(=O)c2ccc(C(=O)Nc3cccc(SC)c3)cc2)c1` [Compound I-2, N^1,N^4-bis(3-(methylthio)phenyl)terephthalamide], the “% Inhibition of Apyrase” value with apyrase is reported as “A (A indicates inhibition above 30%)”. On the same count and under the same terms, the entry for `Nc1ccc(N2C(=O)c3ccccc3C2=O)c(Cl)c1` [Compound I-25, 2-(4-amino-2-chlorophenyl)isoindoline-1,3-dione] is “C (C indicates inhibition of from 10% to 20%)”; for `O=C1CCCc2ccc(NC(=O)c3ccc4c(c3)C(=O)NCCO4)cc2N1` [Compound I-60, 5-oxo-N-(2-oxo-2,3,4,5-tetrahydro-1H-benzo[b]azepin-8-yl)-2,3,4,5-tetrahydrobenzo[f][1,4]oxazepine-7-carboxamide] it is “D (D indicates inhibition of <10%)”; for `Cc1nncn1CCNC(=O)c1ccc(C(=O)Nc2ccccc2)cc1` [Compound I-49] it is “D (D indicates inhibition of <10%)”. On the same count and under the same terms, with `COc1ccccc1NC(=O)c1ccccc1C(=O)N(C)Cc1ccccc1` [Compound I-40, N^1-benzyl-N^2-(2-methoxyphenyl)-N1-methylphthalamide] the entry was “D (D indicates inhibition of <10%)”; with `CCCNC(=O)c1cccc(C(=O)Nc2cccc3cn[nH]c23)c1` [Compound I-57, N^1-(1H-indazol-7-yl)-N^3-propylisophthalamide], “D (D indicates inhibition of <10%)”.

As to `CNC(=O)c1cccc(C(=O)Nc2cccc(NC3CCCC3)c2)c1` [Compound I-44, N^1-(3-(cyclopentylamino)phenyl)-N^3-methylisophthalamide], in the assay on apyrase, the “% Inhibition of Apyrase” value is recorded as “D (D indicates inhibition of <10%)”. On to `O=C(Nc1ccc(OC(F)(F)C(F)F)cc1)c1cccc(C(=O)Nc2ccc(OC(F)(F)C(F)F)cc2)c1` [Compound I-62, N^1,N^3-bis(4-(1,1,2,2-tetrafluoroethoxy)phenyl)isophthalamide], for which the “% Inhibition of Apyrase” value with apyrase was “A (A indicates inhibition above 30%)”. Consider `COC(C)(C)CNC(=O)c1ccc(C(=O)Nc2ccccc2)cc1` [Compound I-28, N^1-(2-methoxy-2-methylpropyl)-N^4-phenylterephthalamide], for which the “% Inhibition of Apyrase” value with apyrase is reported as “C (C indicates inhibition of from 10% to 20%)”. The same measure, in the same setting: with `O=C(Nc1ccccc1)c1cccc(C(=O)Nc2[nH]ncc2-c2ccc3c(c2)OCO3)c1` [Compound I-16, N1-(4-(benzo[d][1,3]dioxol-5-yl)-1H-pyrazol-5-yl)-N3-phenylisophthalamide] the entry was “B (B indicates inhibition of from 20% to 30%)”. The same measure, in the same setting: with `O=C(Nc1ccc(N2CCCC2=O)cc1)c1ccc(C(=O)Nc2ccc(N3CCCC3=O)cc2)cc1` [Compound I-46, N^1,N^4-bis(4-(2-oxopyrrolidin-1-yl)phenyl)terephthalamide] the entry was “D (D indicates inhibition of <10%)”.

On to `Cc1nc(NC(=O)c2ccc(C(=O)Nc3ccccc3)cc2)n[nH]1` [Compound I-39, N^1-(5-methyl-1H-1,2,4-triazol-3-yl)-N^4-phenylterephthalamide], for which the “% Inhibition of Apyrase” value with apyrase is “D (D indicates inhibition of <10%)”. For the compound `O=C(NCc1cccc(-n2ccnc2)c1)c1ccc(C(=O)Nc2ccccc2)cc1` [Compound I-27, N^1-(3-(1H-imidazol-1-yl)benzyl)-N^4-phenylterephthalamide], the “% Inhibition of Apyrase” value in the assay on apyrase is given as “C (C indicates inhibition of from 10% to 20%)”. Still for that read-out and setting: the entry for `COCC#CCn1c(=O)c2ccccc2c(=O)n1C` [Compound I-31, 2-(4-methoxybut-2-yn-1-yl)-3-methyl-2,3-dihydrophthalazine-1,4-dione] is “C (C indicates inhibition of from 10% to 20%)”.

Take `COc1ccc(NC(=O)c2ccc(C(=O)Nc3ccc(OC)cc3OC)cc2)c(OC)c1` [Compound I-45, N^1,N^4-bis(2,4-dimethoxyphenyl)terephthalamide]: in the assay with apyrase, the “% Inhibition of Apyrase” value is listed as “D (D indicates inhibition of <10%)”. The same measure, in the same setting: with `O=C(Nc1ccc(-c2c[nH]cn2)cc1)c1cccc(C(=O)Nc2ccc(-c3c[nH]cn3)cc2)c1` [Compound I-17, N^1,N^3-bis(4-(1H-imidazol-4-yl)phenyl)isophthalamide] the entry was “B (B indicates inhibition of from 20% to 30%)”.

Turning to `O=C1CCCc2cc(NC(=O)c3cccc(C(=O)Nc4ccc5c(c4)CCCC(=O)N5)c3)ccc2N1` [Compound I-36, N^1,N^3-bis(2-oxo-2,3,4,5-tetrahydro-1H-benzo[b]azepin-7-yl)isophthalamide], the “% Inhibition of Apyrase” value in the assay on apyrase was “C (C indicates inhibition of from 10% to 20%)”. Same read-out and setting: the entry for `O=C(Nc1ccccc1)c1ccc(C(=O)Nc2cc3n(n2)CCC3)cc1` [Compound I-34, N^1-(5,6-dihydro-4H-pyrrolo[1,2-b]pyrazol-2-yl)-N^4-phenylterephthalamide] is “C (C indicates inhibition of from 10% to 20%)”; for `O=C(Nc1ccc2c(c1)OCO2)c1ccc(C(=O)Nc2ccc3c(c2)OCO3)cc1` [Compound I-5, N^1,N^4-bis(benzo[d][1,3]dioxol-5-yl)terephthalamide] it is “A (A indicates inhibition above 30%)”. Still for that read-out and setting: the entry for `CNC(=O)c1cccc(C(=O)Nc2ccc(NS(=O)(=O)C(F)(F)F)cc2)c1` [Compound I-56, N^1-methyl-N^3-(4-((trifluoromethyl)sulfonamido)phenyl)iso-phthalamide] is “D (D indicates inhibition of <10%)”; for `CNC(=O)c1cccc(C(=O)Nc2ccc(C#N)c(C(F)(F)F)c2)c1` [Compound I-35, N^1-(4-cyano-3-(trifluoromethyl)phenyl)-N^3-methylisophthalamide] it is “C (C indicates inhibition of from 10% to 20%)”; for `O=C(Nc1ccccc1)c1cccc(C(=O)Nc2cc3c(cc2Cl)OCO3)c1` [Compound I-4, N^1-(6-chlorobenzo[d][1,3]dioxol-5-yl)-N3-phenylisophthalamide] it is “A (A indicates inhibition above 30%)”.
